Data from publication PMC9736855, “Discovery of 3-Amino-1H-pyrazole-Based Kinase Inhibitors to Illuminate the Understudied PCTAIRE Family” (International Journal of Molecular Sciences, 2022).
Where “and” joins values, the source holds several entries; their conditions need not be identical. Equal values may be shown once. Read-outs that look alike come from different tables or passages of the source.

Key:
GPRK5 = biological target: T1, GPRK5 (Homo sapiens, UniProt P34947); experiment: DSF; type: binding
T1 construct: purchased in-house DSF panel (SGC Frankfurt)
T1 sequence (P34947 whole entry): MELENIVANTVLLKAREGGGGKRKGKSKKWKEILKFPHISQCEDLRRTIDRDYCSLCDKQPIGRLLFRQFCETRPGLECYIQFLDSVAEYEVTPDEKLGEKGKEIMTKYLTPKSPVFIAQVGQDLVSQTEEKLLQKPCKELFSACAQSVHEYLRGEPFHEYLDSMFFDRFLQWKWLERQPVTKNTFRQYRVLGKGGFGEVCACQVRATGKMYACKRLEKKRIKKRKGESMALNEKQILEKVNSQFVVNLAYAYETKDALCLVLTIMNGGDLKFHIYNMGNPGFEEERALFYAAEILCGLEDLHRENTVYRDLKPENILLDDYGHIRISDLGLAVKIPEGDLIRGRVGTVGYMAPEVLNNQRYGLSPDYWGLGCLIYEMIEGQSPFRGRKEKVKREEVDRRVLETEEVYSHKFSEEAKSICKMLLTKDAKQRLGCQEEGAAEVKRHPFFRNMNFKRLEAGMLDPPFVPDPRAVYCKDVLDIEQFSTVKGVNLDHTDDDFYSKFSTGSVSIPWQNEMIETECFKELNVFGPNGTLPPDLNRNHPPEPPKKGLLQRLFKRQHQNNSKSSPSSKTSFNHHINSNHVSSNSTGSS
Procedure: (§2) Recombinant protein kinase domains with a concentration of 2 μM were mixed with a 10 μM compound solution in DMSO, 20 mM HEPES, pH 7.5, and 500 mM NaCl. SYPRO Orange (5000×, Invitrogen) was added as a fluorescence probe (1 µl per mL). Subsequently, temperature-dependent protein unfolding profiles were measured, using the QuantStudio™ 5 realtime PCR machine (Thermo Fisher, Waltham, MA, USA). […] The temperature was raised with a step rate of 3 °C per minute. Data points were analyzed with the internal software (Thermal Shift SoftwareTM Version 1.4, Thermo Fisher) using the Boltzmann equation to determine the inflection point of the transition curve [56]. Differences in melting temperature are given as ΔTm values in °C. Measurements were performed in duplicates.

PIM1 = biological target: T2, PIM1 (Homo sapiens, UniProt P11309); experiment: DSF; type: binding
T2 construct: purchased in-house DSF panel (SGC Frankfurt)
T2 sequence (P11309 whole entry): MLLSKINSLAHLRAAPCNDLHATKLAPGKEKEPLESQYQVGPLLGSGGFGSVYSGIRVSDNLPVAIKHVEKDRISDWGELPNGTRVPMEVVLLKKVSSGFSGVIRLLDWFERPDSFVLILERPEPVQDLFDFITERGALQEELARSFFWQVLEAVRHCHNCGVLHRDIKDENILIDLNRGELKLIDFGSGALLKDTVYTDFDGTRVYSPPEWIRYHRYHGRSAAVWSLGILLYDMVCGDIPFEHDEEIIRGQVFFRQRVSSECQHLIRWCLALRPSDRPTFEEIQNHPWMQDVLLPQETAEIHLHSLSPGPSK
Procedure: as §2

CDK16/Cyclin Y = biological target: T3, CDK16/Cyclin Y (Homo sapiens, UniProt Q00536); experiment: NanoBRET; type: cell-based
T3 construct: Full-length kinases were obtained as plasmids cloned in frame with a terminal NanoLuc-fusion; CS1810C178 (CCNY); host or cells: HEK293T
T3 sequence (Q00536 whole entry, the tested form may be a part): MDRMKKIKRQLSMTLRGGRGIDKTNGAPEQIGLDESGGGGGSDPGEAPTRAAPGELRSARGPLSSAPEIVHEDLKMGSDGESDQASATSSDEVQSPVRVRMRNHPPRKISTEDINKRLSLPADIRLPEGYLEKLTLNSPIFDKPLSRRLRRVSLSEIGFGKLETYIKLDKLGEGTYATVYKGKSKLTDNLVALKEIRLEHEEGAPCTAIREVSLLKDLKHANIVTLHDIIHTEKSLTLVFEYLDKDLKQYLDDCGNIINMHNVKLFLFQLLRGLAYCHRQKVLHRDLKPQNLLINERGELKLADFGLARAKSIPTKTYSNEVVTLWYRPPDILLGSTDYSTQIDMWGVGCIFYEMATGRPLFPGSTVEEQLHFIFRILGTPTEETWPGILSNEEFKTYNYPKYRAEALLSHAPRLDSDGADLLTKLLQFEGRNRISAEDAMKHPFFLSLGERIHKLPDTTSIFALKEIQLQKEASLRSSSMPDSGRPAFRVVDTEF
T3 sequence (Q8ND76 2-341 partner limits assumed): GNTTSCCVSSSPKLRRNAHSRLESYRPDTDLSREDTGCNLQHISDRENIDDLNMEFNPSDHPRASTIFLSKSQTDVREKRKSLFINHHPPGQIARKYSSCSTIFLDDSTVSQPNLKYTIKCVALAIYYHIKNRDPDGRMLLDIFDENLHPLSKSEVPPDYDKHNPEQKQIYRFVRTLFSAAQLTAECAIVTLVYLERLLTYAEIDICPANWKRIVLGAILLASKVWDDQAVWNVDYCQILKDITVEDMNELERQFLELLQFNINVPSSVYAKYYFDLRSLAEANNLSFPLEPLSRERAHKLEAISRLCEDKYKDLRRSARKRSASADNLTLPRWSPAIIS
Method in brief: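 HEK293T cells transiently expressing full-length NanoLuc-fused kinase for 20 h, treated with serially diluted inhibitor plus tracer at its KD,app. Equilibrated 2 h at 37 °C/5% CO2 before reading BRET (450/610 nm). EC50 from tracer displacement by normalized 3-parameter fit.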

SLK = biological target: T4, SLK (Homo sapiens, UniProt Q9H2G2); experiment: DSF; type: binding
T4 construct: purchased in-house DSF panel (SGC Frankfurt)
Procedure: (§1) Measurements were performed in duplicates.

MAPK13 = biological target: T5, MAPK13 (Homo sapiens, UniProt O15264); experiment: DSF; type: binding
T5 construct: purchased in-house DSF panel (SGC Frankfurt)
T5 sequence (O15264 1-365): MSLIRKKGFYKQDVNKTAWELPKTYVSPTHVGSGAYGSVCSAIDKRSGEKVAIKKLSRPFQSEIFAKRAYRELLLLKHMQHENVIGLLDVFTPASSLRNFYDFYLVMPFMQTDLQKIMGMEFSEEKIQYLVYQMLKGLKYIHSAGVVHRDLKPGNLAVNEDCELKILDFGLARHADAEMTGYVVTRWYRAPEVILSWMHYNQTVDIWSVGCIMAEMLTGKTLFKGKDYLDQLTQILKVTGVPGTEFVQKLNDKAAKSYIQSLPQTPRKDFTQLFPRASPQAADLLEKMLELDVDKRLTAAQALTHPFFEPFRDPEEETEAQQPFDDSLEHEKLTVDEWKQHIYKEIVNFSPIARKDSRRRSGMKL
Procedure: as §1

PLK4 = biological target: T6, PLK4 (Homo sapiens, UniProt O00444); experiment: DSF; type: binding
T6 construct: purchased in-house DSF panel (SGC Frankfurt)
T6 sequence (O00444 2-275): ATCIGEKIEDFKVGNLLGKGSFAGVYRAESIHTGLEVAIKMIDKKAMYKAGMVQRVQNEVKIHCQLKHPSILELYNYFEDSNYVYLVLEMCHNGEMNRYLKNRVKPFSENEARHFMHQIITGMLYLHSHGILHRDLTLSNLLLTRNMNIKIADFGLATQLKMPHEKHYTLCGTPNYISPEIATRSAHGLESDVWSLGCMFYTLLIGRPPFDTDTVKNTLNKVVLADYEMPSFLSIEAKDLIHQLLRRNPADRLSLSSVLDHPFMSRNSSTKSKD
Procedure: as §1

OSR1 = biological target: T7, OSR1 (Homo sapiens, UniProt O95747); experiment: DSF; type: binding
T7 construct: purchased in-house DSF panel (SGC Frankfurt)
T7 sequence (O95747 1-303): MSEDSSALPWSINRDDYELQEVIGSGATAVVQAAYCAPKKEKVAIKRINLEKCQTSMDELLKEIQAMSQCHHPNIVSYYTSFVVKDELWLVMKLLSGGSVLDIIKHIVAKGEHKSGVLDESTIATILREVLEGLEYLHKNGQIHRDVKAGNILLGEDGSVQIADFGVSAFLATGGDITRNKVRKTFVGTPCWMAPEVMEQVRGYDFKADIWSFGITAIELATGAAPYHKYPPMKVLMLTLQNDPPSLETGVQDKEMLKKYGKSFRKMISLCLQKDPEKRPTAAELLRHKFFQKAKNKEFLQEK
Procedure: as §1

CDC42BPA = biological target: T8, CDC42BPA (Homo sapiens, UniProt Q5VT25); experiment: DSF; type: binding
T8 construct: purchased in-house DSF panel (SGC Frankfurt)
T8 sequence (Q5VT25 1-414): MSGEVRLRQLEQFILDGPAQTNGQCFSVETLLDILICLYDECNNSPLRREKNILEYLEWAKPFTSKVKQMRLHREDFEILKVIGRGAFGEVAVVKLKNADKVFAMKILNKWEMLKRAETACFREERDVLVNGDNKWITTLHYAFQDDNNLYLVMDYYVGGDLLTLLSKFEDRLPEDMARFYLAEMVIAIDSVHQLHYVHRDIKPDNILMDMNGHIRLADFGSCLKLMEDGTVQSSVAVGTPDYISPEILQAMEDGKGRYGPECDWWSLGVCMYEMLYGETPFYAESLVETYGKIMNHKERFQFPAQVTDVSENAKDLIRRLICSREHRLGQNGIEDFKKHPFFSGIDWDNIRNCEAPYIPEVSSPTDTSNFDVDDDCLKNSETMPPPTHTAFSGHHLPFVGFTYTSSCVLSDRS
Procedure: as §1

MAP2K7 = biological target: T9, MAP2K7 (Homo sapiens, UniProt O14733); experiment: DSF; type: binding
T9 construct: purchased in-house DSF panel (SGC Frankfurt)
T9 sequence (O14733 120-380): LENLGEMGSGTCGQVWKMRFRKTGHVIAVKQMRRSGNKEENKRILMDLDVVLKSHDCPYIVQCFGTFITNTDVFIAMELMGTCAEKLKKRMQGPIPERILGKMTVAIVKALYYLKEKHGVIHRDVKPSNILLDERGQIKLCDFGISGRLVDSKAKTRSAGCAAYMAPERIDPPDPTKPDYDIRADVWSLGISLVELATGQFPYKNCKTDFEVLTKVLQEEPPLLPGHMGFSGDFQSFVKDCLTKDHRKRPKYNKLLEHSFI
Procedure: as §1

MAP2K4 = biological target: T10, MAP2K4 (Homo sapiens, UniProt P45985); experiment: DSF; type: binding
T10 construct: purchased in-house DSF panel (SGC Frankfurt)
T10 sequence (P45985 102-367): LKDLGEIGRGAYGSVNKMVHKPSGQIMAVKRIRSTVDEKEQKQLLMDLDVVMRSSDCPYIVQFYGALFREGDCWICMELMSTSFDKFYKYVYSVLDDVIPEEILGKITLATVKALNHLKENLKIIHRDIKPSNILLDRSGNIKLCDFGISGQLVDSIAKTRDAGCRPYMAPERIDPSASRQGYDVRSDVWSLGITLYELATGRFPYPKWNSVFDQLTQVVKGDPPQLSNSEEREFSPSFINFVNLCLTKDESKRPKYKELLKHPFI
Procedure: as §2

STK38L = biological target: T11, STK38L (Homo sapiens, UniProt Q9Y2H1); experiment: DSF; type: binding
T11 construct: purchased in-house DSF panel (SGC Frankfurt)
T11 sequence (Q9Y2H1 90-453): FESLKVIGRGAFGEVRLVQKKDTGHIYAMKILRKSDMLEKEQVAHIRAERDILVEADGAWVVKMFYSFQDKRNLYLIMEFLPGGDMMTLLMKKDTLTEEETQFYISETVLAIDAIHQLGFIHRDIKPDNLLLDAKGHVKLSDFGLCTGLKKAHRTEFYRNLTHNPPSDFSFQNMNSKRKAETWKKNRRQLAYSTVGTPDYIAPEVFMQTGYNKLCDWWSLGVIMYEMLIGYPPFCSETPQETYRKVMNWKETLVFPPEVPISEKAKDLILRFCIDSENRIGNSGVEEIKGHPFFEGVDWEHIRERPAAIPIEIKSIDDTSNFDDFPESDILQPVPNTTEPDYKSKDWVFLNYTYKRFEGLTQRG
Procedure: as §2

[1] = Figure 7, 11-point dose-response in duplicates, read-out: NanoBRET EC50 ± SEM against CDK16

| SMILES | ΔTm GPRK5 (GPRK5) [°C] | ΔTm PIM1 (PIM1) [°C] | EC50 (CDK16/Cyclin Y; [1]) | ΔTm SLK (SLK) [°C] | ΔTm MAPK13 (MAPK13) [°C] | ΔTm PLK4 (PLK4) [°C] | ΔTm OSR1 (OSR1) [°C] | ΔTm CDC42BPA (CDC42BPA) [°C] | ΔTm MAP2K7 (MAP2K7) [°C] | ΔTm MAP2K4 (MAP2K4) [°C] | ΔTm STK38L (STK38L) [°C] | EC50 (CDK16/Cyclin Y; CDK family profiling, Table S5, read-out: NanoBRET EC50 ± SEM CDK16/Cyclin Y) [nM] |
| --- | --- | --- | --- | --- | --- | --- | --- | --- | --- | --- | --- | --- |
| CC(C)OC(=O)c1cc(Nc2ccnc(NCc3ccc(NC(=O)OC(C)(C)C)cc3)n2)n[nH]1 [42d, isopropyl 3-((2-((4-((tert-butoxycarbonyl)amino)benzyl)amino)pyrimidin-4-yl)amino)-1H-pyrazole-5-carboxylate] | -1.3 | 0.2 | 44 nM | -0.6 | 1.0 | 3.7 | -0.8 | -0.7 | -0.3 | 0.4 | 0.0 | – |
| CC(C)(C)OC(=O)Nc1ccc(CNc2nccc(Nc3cc(C(=O)OC(C)(C)C)[nH]n3)n2)cc1 [43d, tert-butyl 3-((2-((4-((tert-butoxycarbonyl)amino)benzyl)amino)pyrimidin-4-yl)amino)-1H-pyrazole-5-carboxylate] | -1.4 | -0.7 | 33 nM and 33.4 nM | 0.1 | 1.3 | 5.5 | -0.4 | -0.8 | -3.0 | 1.0 | 0.0 | – |
| COC(=O)c1cc(Nc2ccnc(NCCOCCNC(=O)OC(C)(C)C)n2)[nH]n1 [21d, methyl 5-((2-((2-(2-((tert-butoxycarbonyl)amino)ethoxy)ethyl)amino)pyrimidin-4-yl)amino)-1H-pyrazole-3-carboxylate] | 0.2 | 2.1 | 1370 ± 306 nM | 1.0 | 0.5 | 3.0 | 0.3 | 0.5 | 0.7 | 0.9 | 1.2 | – |
| CN[C@@H]1C[C@H]2O[C@@](C)([C@@H]1OC)n1c3ccccc3c3c4c(c5c6ccccc6n2c5c31)C(=O)NC4 [staurosporine, reference compound] | – | – | – | 18.0 | 7.5 | 16.0 | 7.7 | 2.8 | 8.4 | – | – | – |
| N#CCc1ccc(Nc2nccc(Nc3cc(C4CC4)[nH]n3)n2)cc1 [compound 1, reference compound] | 5.2 | 3.3 | – | 8.8 | 8.0 | 11.1 | 5.6 | -0.1 | 12.0 | 10.0 | 8.7 | 14.6 ± 5.5 |
| COC(=O)c1cc(Nc2ccnc(NCc3ccc(NC(=O)OC(C)(C)C)cc3)n2)[nH]n1 [21i, methyl 5-((2-((4-((tert-butoxycarbonyl)amino)benzyl)amino)pyrimidin-4-yl)amino)-1H-pyrazole-3-carboxylate] | 0.7 | -0.6 | 380 nM | 0.2 | 1.0 | 4.1 | 0.6 | -0.5 | 0.5 | 2.4 | 0.9 | – |
